In patent publication US10744127B2, “MDR-reversing 8-hydroxy-quinoline derivatives” (MAGYAR TUDOMÁNYOS AKADÉMIA TERMÉSZETTUDOMÁNYI KUTATÓKÖZPONT, priority 2016, dated 2020):
pIC50: −log10 of the molar value. Like-named read-outs stand apart in the source and are kept apart here.

Key:
[1] = system: primary cells from doxorubicin resistant brca1-/-/p53-/- spontaneous mouse mammary carcinoma; experiment: Calcein assay of functional P-gp in primary tumor cells from doxorubicin resistant mammary carcinoma; type: cell-based; conditions: single treatment, calcein assay (FIG. 4D)
Description: Tumor pieces derived from Brca1−/−;p53−/− FVB mouse mammary tumors were transplanted orthotopically into the mammary fat pad of wild type FVB mice.
As described by Rottenberg et al. (Pajic et al. 2009), treatment with several cycles of the maximum tolerable dose of doxorubicin invariably lead to drug resistance mediated by the moderate upregulation of Mdr1a and/or Mdr1b (FIG. 4A). Primary cultures from resistant tumors were established. In just 10 passages the culture was depleted of stromal components (FIG. 4B).
Functional expression of P-gp in the primary cells was evaluated by the calcein assay.

[2] = system: MES-SA and multidrug-resistant MES-SA/Dx5 cell line; experiment: Selective toxicity (ratio of IC50 in MES-SA to IC50 in MES-SA/Dx5) and activity index; type: cell-based, human
Description: Compounds having P-gp potentiated MDR-selective activity can be characterized by their inhibitory concentration (IC) with regard to a specific cancer cell line. Usually the IC value is given at a certain percentage ratio of non-inhibited molecules or surviving cells. For example an IC20 value of a compound on a cell line means that at this inhibitory concentration of the compound 80% of the cells are killed whereas 20% of the cells are still viable. A further characteristic of MDR-selective drugs is the selectivity ratio (SR), which is the ratio of the IC value measured in a non-multidrug resistant cell line to (i.e. divided by) the IC value measured in the corresponding transformed, multidrug-resistant cell line. The inverse value, the resistance ratio (RR) is calculated as the ratio of a compound's IC value against a multidrug resistant cell line divided by the parallel IC value of the same compound against a control non-multidrug resistant cell line. The Activity Index (AI) is calculated here as the ratio of the compound's selectivity ratio (SR) and the compound's IC50 value against the resistant cell. The AI reflects the level of simultaneous toxicity and selectivity towards multidrug-resistant cancer cells.
(§1) The human uterine sarcoma cell line MES-SA and its doxorubicin resistant counterpart MES-SA/Dx5 were obtained from ATCC (MES-SA: No. CRL-1976™, MES-SA-Dx5: No. CRL-1977™). MES-SA/Dx5 cells express high levels of P-gp, and therefore are multidrug resistant (MDR). Cells were cultured in DMEM supplemented with 10% FBS, 5 mmol/L glutamine and 50 unit/mL penicillin and streptomycin (Life Technologies).
(§2) Cell survival was measured by the PrestoBlue® Cell Viability Reagent (Life Technologies, USA). Cells were seeded in 100 μl medium at a density of 5000 cells/well in 96-well plates; the serially diluted drug was added the following day. Cells were then incubated for 72 hours at 37° C. in 5% CO2; the drug containing medium was removed, and the PrestoBlue® reagent was added according to the manufacturer's instructions. Fluorescence of the cells was measured by a Perkin Elmer EnSpire multimode plate reader or Perkin Elmer Victor X3 microplate reader. Data were background corrected and normalized to untreated cells. Curves were fitted with the help of Prism software using the sigmoidal dose-response model. Curve fit statistics were used to determine IC50 values. Differences between the IC50 values of the respective cell lines were analyzed by two-sided […] unpaired Student's t test and results were considered statistically significant at a P value of <0.05 (*) or 0.01 (**).
Selectivity towards multidrug-resistant cells is expressed as the ratio of the IC50 value measured in the parental MES-SA and multidrug-resistant MES-SA/Dx5 cell line (Selectivity Ratio, SR).
A novel characteristic of the compounds presented in this invention is that they exert their selective cytotoxicity at low IC50 values. Simultaneous toxicity and selectivity towards multidrug-resistant cancer cells is reflected by the Activity Index (AI) of the compounds, which is the ratio of the selectivity ratio (SR) and the IC50 value on the resistant cell line.

MES-SA cell line = experiment: Cytotoxicity, PrestoBlue cell viability assay, parental MES-SA; type: cell-based; conditions: Homo sapiens; parental MES-SA cell line (Table 2a)
Protocol: as §1, §2

[3] = system: MES-SA and MES-SA/Dx5 cells; experiment: Selective toxicity in the presence of the P-gp inhibitor tariquidar; type: cell-based, human; conditions: selectivity ratio in the presence of tariquidar (1 μM)
Protocol: In the presence of tariquidar (an inhibitor of P-gp function), the toxicity of the compounds selectively diminishes in multidrug-resistant MES-SA/Dx5 cells, while the toxicity is unchanged against parental MESSA cells, which is reflected by a decrease in the selectivity ratio (SR (TQ)).
To investigate the contribution of P-glycoprotein to the cytotoxic effect of a compound, cell survival was measured in the presence of the P-glycoprotein inhibitor tariquidar (1 μM). Tariquidar (CAS 206873-63-4) can be obtained e.g. from Selleck, Houston, USA.

MES-SA/Dx5 cell line = experiment: Cytotoxicity, PrestoBlue cell viability assay, MES-SA/Dx5; type: cell-based; conditions: Homo sapiens
Protocol: as §1, §2

[4] = system: MDCK II and MDCK II B1 cell lines; experiment: Selective toxicity towards MDCK II and MDCK II B1 cell lines; type: cell-based, canine; conditions: MDCK II versus MDCK II B1
Protocol: as §2
Data on selective toxicity (expressed as Selectivity Ratio, SR) in two MDR models engineered by retroviral transfection of P-glycoprotein (A431/A431-B1 and MDCK II/MDCK II B1 cell lines) are presented in Table 3 and Table 4.
A431 is a human epidermoid carcinoma cell line. Its derivative, the A431-B1 cell line expresses P-gp due to retroviral transfection of the mdr1 gene Türk, D. et al (Türk, D. et al., 2009). MDCK II is a canine kidney cell line. MDCK II B1 was created by inserting the mdr1 gene with transposons [Pape V F S et al. 2015] Both cell express P-gp stably, and show a stable MDR phenotype. Culture conditions were identical as in the case of MES-SA cells.

[5] = system: P-gp-expressing MES-SA/Dx5 cells; experiment: P-gp switch assay (Calcein AM); type: cell-based, human; conditions: MES-SA/Dx5, single dose at IC20 (killing 80% of the cells), surviving population at 80% confluence, Calcein AM
Protocol: One million P-gp-expressing MES-SA/Dx5 cells were plated in a T25 cell culture flask. After 24 hours the compound of interest was added directly to the cells at a concentration corresponding to the IC20 value (killing 80% of the cells). After 5 days the culture media was removed, the cells were washed with PBS and the culture medium was exchanged. Cells were monitored daily and the recovery was recorded. The medium was changed every 5 days until the confluence of the cells reached 80%. At 80% confluence the cells were removed by gentle trypsinization, counted by an automated cell counter and stained with Calcein AM, a cellular dye able to detect the function of P-gp (Homolya 1993). P-gp-positivity was evaluated based on the ability of P-gp-expressing cells to extrude Calcein AM.

MES-SA/Dx5 cells = experiment: Sensitivity of MES-SA/Dx5 cells to doxorubicin after a single treatment; type: cell-based, human; conditions: after treatment with a single dose (FIG. 3)
Description: The above treatment with compounds of the general Formula I results in a new, stable phenotype, with the complete resensitization of cells to conventional chemotherapy consisting of P-glycoprotein substrates such as doxorubicin (FIG. 3).
Curves show the sensitivity of MES-SA/Dx5 cells (P-gp overexpressing cell line established from MES-SA) to doxorubicin before and after treatment with a single dose of a state of the art compound (NSC693872) and two compounds relating to this invention (Example compounds No. 9 and No. 17). The sensitivity of MES-SA cells is shown as a reference (P-gp-negative parental cell line). […] (Values indicate the IC50 values (μM) derived from the cytotoxicity curves).

For `COc1ccc(CNCc2cc(Br)c3cccnc3c2O)c(OC)c1` [Example 9, 5-Bromo-7-(((2,4-dimethoxybenzyl)amino)methyl)quinolin-8-ol], the “P-gp efflux capacity of primary tumor cells” value [1] was “efflux capacity of the cells could be eradicated by a single treatment”, the SR ([2]; MES-SA / MES-SA/Dx5 (Table 2b)) was 20.4 and the SR ([2]; MES-SA / MES-SA/Dx5, without tariquidar (Table 5)) was 20.4. For the same compound, the IC50 (MES-SA cell line) was 2260 nM, the “SR (TQ)” value [3] was 1.8 and the melting point was 146 to 148 °C. The IC50 (MES-SA/Dx5 cell line; MES-SA/Dx5 (Table 2b), read-out: IC50 (μM) Dx5) was 0.12 µM, the pIC50 (MES-SA/Dx5 cell line; Mes-sa/Dx5 cell line, PrestoBlue assay, 72 hours (Table 1), read-out: IC50) was 6.93 and the IC50 (MES-SA/Dx5 cell line; multidrug-resistant MES-SA/Dx5 cell line (Table 2a), read-out: IC50 (nM) in MES-SA/Dx5 cell line) was 0.118 µM. For the same compound, the “Selectivity Ratio (SR) (MDCK II/MDCK II B1)” value [4] was 16.8, the “Fraction of P-gp-negative cells (P3) in the population” value [5] was 99.0% and the “Fraction of P-gp-positive cells (P4) in the population” value [5] was 1.0%. For the same compound, the “Resensitization of MES-SA/Dx5 cells to doxorubicin” value (MES-SA/Dx5 cells) was “sufficient to resensitize MES-SA/Dx5 cells to doxorubicin”.
